In assay [1] the test system is TRF2 interaction with TERRA. In words: RNA-ChIP assay of TRF2-TERRA interaction in LOX cells. Format: cell-based. As to conditions: Homo sapiens, 24 h, read-out: inhibition of TRF2 interaction with TERRA relative to PP control. On the procedure: Mei et al, 2020 TERRA Requires TRF2 GAR Domain […]
blot procedures. Northern blot was performed as previously described with some modifications […]
2. Briefly, 6 µg RNA was denatured in NorthernMax formaldehyde loading dye (Ambion) for 15 […]
min at 65 °C and separated by 1.2% agarose formamide gel in 1X Mops buffer (Ambion) at […]
5V/cm for 2-3 hrs. RNA samples were transferred to GeneScreen Plus blotting membranes […]
(Perkin-Elmer) with 10X SSC and UV cross-linked onto membranes at 125 mJ in UV […]
Stratalinker 2400 (Stratagene). The hybridization was performed using a 32P-labeled TERRA […]
probe in Church buffer (0.5 N Na-phosphate, pH 7.2, 7% SDS, 1 mM EDTA, 1% BSA) for […]
overnight at 50 °C. The blot was washed twice in 0.2 N Na-phosphate, 2% SDS, and 1 mM […]
EDTA at room temperature and once in 0.1 N Na-phosphate, 2% SDS, and 1 mM EDTA at […]
50 °C. Images were collected by phosphor- imager (Amersham Biosciences), and were […]
visualized with a Typhoon 9410 Imager (GE Healthcare) and quantified with ImageQuant TL […]
Genomic DNA was isolated from cells using a genomic DNA purification kit (Promega) and digested with AluI and MboI. Digested genomic DNA was purified by phenol/choloroform extraction and quantified using a Qubit 4 Fluorometer (Thermal Scientific). […] The DNA was transferred to GeneScreen Plus blotting membranes (Perkin-Elmer) and analyzed by Southern blot. […]

The test system of assay [2] is nascent TERRA transcripts. Put plainly: Nascent RNA capture (EU, Click-iT) and RT-qPCR for TERRA in LOX cells. Format: cell-based, human. The settings on record: 2 μM, 48 h, then EU 4 h. The protocol:
Mei et al, 2020 TERRA Requires TRF2 GAR Domain
Nascent RNA analysis was performed as described previously 2 by the use of Click-iT Nascent RNA capture kit (Life Technologies) with some modifications. Briefly, LOX cells were treated with 2 µM of chemicals, or LOX TRF2DB cells were induced with 1 µg/ml of doxycycline for 48 hrs, and then treated cells were pulse labeled 0.2 mM EU for additional 4 hrs. Total RNA was prepared and biotinylated by Click reaction. Nascent RNA was purified by using Streptavidin T1 magnetic beads and was subject to cDNA synthesis using SuperScript VILO cDNA synthesis kit (Life Technologies). Relative Nascent RNA expression was determined using DCT methods relative to control gene U1 or Actin. Primer sequences used in qPCR analysis of 10q, 13q, XYq, and 18q TERRA were described previously 2.
Reference (Supplmentary Methods)
1 Deng, Z., Norseen, J., Wiedmer, A., Riethman, H. & Lieberman, P. M. TERRA RNA binding to TRF2 facilitates heterochromatin formation and ORC recruitment at telomeres. Mol […]
2 Deng, Z. et al. HSV-1 remodels host telomeres to facilitate viral replication. Cell Rep 9,
3 Deng, Z. et al. A role for CTCF and cohesin in subtelomere chromatin organization, TERRA transcription, and telomere end protection. EMBO J 31, 4165-4178, […]
(Real-time PCR tracks product formation cycle by cycle.)

The subject of assay [3] is TeloDNA (HTRF assay) (DNA, G4) TTAGGGTTAGGGTTAGGGTTAGGG
In words: HTRF, disruption of TRF2 peptide complex. As to conditions: TRF2 GAR peptide displaced.

Assay [4] concerns TERRA (HTRF assay) (RNA, G4) UUAGGGUUAGGGUUAGGGUUAGGG
In words: HTRF, disruption of TRF2 peptide complex. The settings on record: TRF2 GAR peptide displaced. In general terms: In TR-FRET formats the signal depends on donor and acceptor labels being close together.

In general, inhibition refers to the relative decrease from the control value, in per cent. What is called IC50 is the concentration at which inhibition is half-maximal.

As to `CN(C)c1ccc(Nc2c3ccc(NC(=O)CCN4CCCC4)cc3nc3cc(NC(=O)CCN4CCCC4)ccc23)cc1` [BRACO-19], in assay [1], the inhibition at 2 µM is ~50%. Further, in assay [2], the “nascent TERRA transcripts from chromosomes 10q, XYq and 18q” value is listed as “significant reduction (~ two fold)”. The compound also displayed an IC50 in assay [3] of 7.00 ± 0.16 nM.
As for `CCc1c(C)c2cc3nc(cc4nc(cc5c(CC)c(C)c(cc1[nH]2)n5C)C(C)=C4CCC(=O)O)C(CCC(=O)O)=C3C` [NMM, N-methyl mesoporphyrin IX], in assay [1], the inhibition at 2 µM was ~50%. The “nascent TERRA transcripts from chromosomes 10q, XYq and 18q” value in assay [2] is on record as “significant reduction (~ two fold)”. The compound further yielded an IC50 in assay [4] of 1.7 ± 0.8 nM.
